Measured values taken from patent publication US20040147545A1, “Derivatives of oxazolidinones as antibacterial agents” (priority 2001, published 2004).
Values after ≈ are worked out from the molar mass of the structure shown.

Assays:
Format in all cases: cell-based
[1] = system: S. pneumoniae resistant to penicillin; test: Antibacterial activity, microdilution in culture broth (NCCLS), strain C; conditions: Streptococcus pneumoniae, G (+) hospital strain, inoculum 5×10^5 UFC/ml
Excerpt: (§1) The antibacterial activity of the new synthesised compounds on the various strains of the bacterial species was implemented using the technique of microdilution in culture broth according to the regulations of the National Committee for Clinical Laboratory Standards (NCCLS), (NCCLS. 1993. Methods for dilution antimicrobial susceptibility tests for bacteria that grow aerobically. Approved standard M7-A3. NCCLS, Vilanova. Pa., and NCCLS. 1993. Methods for dilution antimicrobial susceptibility tests for anaerobic bacteria […]. Approved standard M1-A3. NCCLS, Vilanova. Pa.).
(§2) The inoculum used was 5×10^5 UFC/ml following dilution of the cultures overnight in the exponential phase of bacterial growth.
(§3) The MIC expressed in mg/l was defined as the minimum concentration of antibiotic which inhibited any visible growth.
(§4) Linezolid was included as comparative compound.
(§5) The compounds were tested on the strains of G(+) and G(−) bacteria set out in Table 1, in which: […]

[2] = system: S. aureus resistant to meticillin; test: Antibacterial activity, microdilution in culture broth (NCCLS), strain A; conditions: Staphylococcus aureus, G (+) hospital strain, inoculum 5×10^5 UFC/ml
Excerpt: as §1, §2, §3, §4, §5

[3] = system: S. pyogenes; test: Antibacterial activity, microdilution in culture broth (NCCLS), strain F; conditions: Streptococcus pyogenes, G (+) hospital strain, inoculum 5×10^5 UFC/ml
Excerpt: as §1, §2, §3, §5

[4] = system: H. influenzae; test: Antibacterial activity, microdilution in culture broth (NCCLS), strain I; conditions: Haemophilus influenzae, G (−) hospital strain, inoculum 5×10^5 UFC/ml
Excerpt: as §1, §2, §3, §4, §5

[5] = system: S. epidermidis; test: Antibacterial activity, microdilution in culture broth (NCCLS), strain E; conditions: Staphylococcus epidermidis, G (+) hospital strain, inoculum 5×10^5 UFC/ml
Excerpt: as §1, §2, §3, §4, §5

[6] = system: E. coli; test: Antibacterial activity, microdilution in culture broth (NCCLS), strain H; conditions: Escherichia coli, G (−) hospital strain, inoculum 5×10^5 UFC/ml
Excerpt: as §1, §2, §3, §4, §5

[7] = system: M. Catarrahalis; test: Antibacterial activity, microdilution in culture broth (NCCLS), strain J; conditions: G (−) hospital strain, inoculum 5×10^5 UFC/ml
Excerpt: as §1, §2, §3, §4, §5

[8] = system: E. faecalis resistant to vancomycin; test: Antibacterial activity, microdilution in culture broth (NCCLS), strain B; conditions: Enterococcus faecalis, G (+) hospital strain, inoculum 5×10^5 UFC/ml
Excerpt: as §1, §2, §3, §4, §5

[9] = system: S. agalactiae; test: Antibacterial activity, microdilution in culture broth (NCCLS), strain D; conditions: Streptococcus agalactiae, G (+) hospital strain, inoculum 5×10^5 UFC/ml
Excerpt: as §1, §2, §3, §4, §5

[10] = system: B. fragilis; test: Antibacterial activity, microdilution in culture broth (NCCLS), strain G (anaerobic); conditions: Bacteroides fragilis, anaerobic hospital strain, inoculum 5×10^5 UFC/ml
Excerpt: as §1, §2, §3, §4, §5

SMILES | MIC [1] [µg/mL] | MIC [2] [µg/mL] | MIC [3] [µg/mL] | MIC [4] [µg/mL] | MIC [5] [µg/mL] | MIC [6] [µg/mL] | MIC [7] [µg/mL] | MIC [8] [µg/mL] | MIC [9] [µg/mL] | MIC [10] [µg/mL]
CC(=O)NC[C@H]1CN(c2ccc(N3CCN(c4cc5c(cc4F)c(=O)c(C(=O)O)cn5C4CC4)CC3)c(F)c2)C(=O)O1 [EXAMP. 1 + 8, 7-(4-{4-[5-(S)-(acetylamino-methyl)-2-oxo-oxazolidin-3-yl]-2-fluoro-phenyl}-piperazin-1-yl)-1-cyclopropyl-6-fluoro-4-oxo-1,4-dihydro-quinoline-3-carboxylic Acid] | < 0.125 | 0.25 | < 0.125 | 0.25 | 0.125 | 8 | 0.25 | 0.125 | 0.125 | 0.25
CCn1cc(C(=O)O)c(=O)c2cc(F)c(N3CCN(c4ccc(N5C[C@H](CNC(C)=O)OC5=O)cc4F)CC3)c(F)c21 [EXAMP. 3, 7-(4-{4-[5-(S)-(acetylamino-methyl)-2-oxo-oxazolidin-3-yl]-2-fluoro-phenyl}-piperazin-1-yl)-1-ethyl-6,8-difluoro-4-oxo-1,4-dihydro-quinoline-3-carboxylic Acid] | < 0.125 | < 0.125 | < 0.125 | 4 (≈ 6.81 µM) | < 0.125 | 64 (≈ 109 µM) | 0.5 (≈ 0.851 µM) | < 0.125 | < 0.125 | 0.5 (≈ 0.851 µM)
CCn1cc(C(=O)O)c(=O)c2cc(F)c(N3CCN(c4ccc(N5C[C@H](CNC(C)=O)OC5=O)cc4F)CC3)cc21 [EXAMP. 4, 7-(4-{4-[5-(S)-(acetylamino-methyl)-2-oxo-oxazolidin-3-yl]-2-fluoro-phenyl}-piperazin-1-yl)-1-ethyl-6-fluoro-4-oxo-1,4-dihydro-quinoline-3-carboxylic Acid] | < 0.125 | 0.25 (≈ 0.439 µM) | < 0.125 | 2 (≈ 3.51 µM) | < 0.125 | 16 (≈ 28.1 µM) | 1 (≈ 1.76 µM) | 0.25 (≈ 0.439 µM) | < 0.125 | 0.5 (≈ 0.878 µM)
CC(=O)NC[C@H]1CN(c2ccc(N3CCN(c4c(F)cc5c(=O)c(C(=O)O)cn6c5c4OCC6C)CC3)cc2)C(=O)O1 (stereo partly drawn) [EXAMP. 5, 9-(4-{4-[5-(S)-(acetylamino-methyl)-2-oxo-oxazolidin-3-yl]-phenyl}-piperazin-1-yl)-8-fluoro-3-methyl-6-oxo-2,3-dihydro-6H-1-oxa-3a-aza-phenalen-5-carboxylic Acid] | 0.5 (≈ 0.863 µM) | 0.5 (≈ 0.863 µM) | 0.5 (≈ 0.863 µM) | 1 (≈ 1.73 µM) | 0.25 (≈ 0.431 µM) | 4 (≈ 6.9 µM) | 1 (≈ 1.73 µM) | 0.5 (≈ 0.863 µM) | 0.5 (≈ 0.863 µM) | 2 (≈ 3.45 µM)
CC(=O)NC[C@H]1CN(c2ccc(N(C)C3CCN(c4c(F)cc5c(=O)c(C(=O)O)cn6c5c4OCC6C)C3)c(F)c2)C(=O)O1 (stereo partly drawn) [EXAMP. 6, 9-[3-({4-[5-(S)-(acetylamino-methyl)-2-oxo-oxazolidin-3-yl]-2-fluoro-phenyl}-methyl-amino)-pyrrolidin-1-yl]-8-fluoro-3-methyl-6-oxo-2,3-dihydro-6H-1-oxa-3a-aza-phenalen-5-carboxylic Acid] | 1 (≈ 1.64 µM) | 2 (≈ 3.27 µM) | 1 (≈ 1.64 µM) | < 0.125 | 0.5 (≈ 0.818 µM) | 2 (≈ 3.27 µM) | 0.25 (≈ 0.409 µM) | 1 (≈ 1.64 µM) | 0.5 (≈ 0.818 µM) | 16 (≈ 26.2 µM)
CC(=O)NC[C@H]1CN(c2ccc(N3CCN(c4c(F)cc5c(=O)c(C(=O)O)cn6c5c4OCC6C)CC3)c(F)c2)C(=O)O1 (stereo partly drawn) [EXAMP. 7, 9-(4-{4-[5-(S)-(acetylamino-methyl)-2-oxo-oxazolidin-3-yl]-2-fluoro-phenyl}-piperazin-1-yl)-8-fluoro-3-methyl-6-oxo-2,3-dihydro-6H-1-oxa-3a-aza-phenalene-5-carboxylic Acid] | 0.25 (≈ 0.418 µM) | 0.25 (≈ 0.418 µM) | 0.25 (≈ 0.418 µM) | 4 (≈ 6.69 µM) | 0.25 (≈ 0.418 µM) | 8 (≈ 13.4 µM) | 1 (≈ 1.67 µM) | 0.5 (≈ 0.837 µM) | 0.5 (≈ 0.837 µM) | 2 (≈ 3.35 µM)
CNC(=S)NC[C@H]1CN(c2ccc(N3CCN(c4cc5c(cc4F)c(=O)c(C(=O)O)cn5C4CC4)CC3)c(F)c2)C(=O)O1 [EXAMP. 9, 1-cyclopropyl-6-fluoro-7-[4-(2-fluoro-4-{5-(S)-[(3-methyl-thioureido)-methyl]-2-oxo-oxazolidin-3-yl}-phenyl)-piperazin-1-yl]-4-oxo-1,4-dihydro-quinoline-3-carboxylic Acid] | < 0.125 | < 0.125 | < 0.125 | 1 (≈ 1.63 µM) | < 0.125 | > 64 | 0.25 (≈ 0.408 µM) | < 0.125 | < 0.125 | 0.5 (≈ 0.816 µM)
CCNC(=O)NC[C@H]1CN(c2ccc(N3CCN(c4cc5c(cc4F)c(=O)c(C(=O)O)cn5C4CC4)CC3)c(F)c2)C(=O)O1 [EXAMP. 10, 1-cyclopropyl-7-[4-(4-{5-(S)-[(3-ethyl-ureido)-methyl]-2-oxo-oxazolidin-3-yl}-2-fluoro-phenyl)-piperazin-1-yl]-6-fluoro-4-oxo-1,4-dihydro-quinoline-3-carboxylic Acid] | 1 (≈ 1.64 µM) | 1 (≈ 1.64 µM) | 1 (≈ 1.64 µM) | 4 (≈ 6.55 µM) | 0.25 (≈ 0.409 µM) | 64 (≈ 105 µM) | 2 (≈ 3.28 µM) | 2 (≈ 3.28 µM) | 1 (≈ 1.64 µM) | 4 (≈ 6.55 µM)
CCOC(=O)NC[C@H]1CN(c2ccc(N3CCN(c4cc5c(cc4F)c(=O)c(C(=O)O)cn5C4CC4)CC3)c(F)c2)C(=O)O1 [EXAMP. 11, 1-cyclopropyl-7-(4-{4-[5-(S)-(ethoxycarbonylamino-methyl)-2-oxo-oxazolidin-3-yl]-2-fluoro-phenyl}-piperazin-1-yl)-6-fluoro-4-oxo-1,4-dihydro-quinoline-3-carboxylic Acid] | 0.5 (≈ 0.818 µM) | 0.5 (≈ 0.818 µM) | 0.5 (≈ 0.818 µM) | 4 (≈ 6.54 µM) | 0.125 (≈ 0.204 µM) | 32 (≈ 52.3 µM) | 1 (≈ 1.64 µM) | 0.5 (≈ 0.818 µM) | 1 (≈ 1.64 µM) | 1 (≈ 1.64 µM)
CCOC(=O)c1cn(C2CC2)c2nc(N3CCN(c4ccc(N5C[C@H](CNC(C)=O)OC5=O)cc4F)CC3)c(F)cc2c1=O [EXAMP. 16, 7-(4-{4-[5-(S)-(acetylamino-methyl)-2-oxo-oxazolidin-3-yl]-2-fluoro-phenyl}-piperazin-1-yl)-1-cyclopropyl-6-fluoro-4-oxo-1,4-dihydro-[1,8]Naphthyridine-3-carboxylic Acid Ethyl Ester] | 1 (≈ 1.64 µM) | 4 (≈ 6.55 µM) | 1 (≈ 1.64 µM) | > 64 | 2 (≈ 3.28 µM) | > 64 | 8 (≈ 13.1 µM) | 2 (≈ 3.28 µM) | 1 (≈ 1.64 µM) | 8 (≈ 13.1 µM)
CCOC(=O)c1cn(CCF)c2c(F)c(N3CCN(c4ccc(N5C[C@H](CNC(C)=O)OC5=O)cc4F)CC3)c(F)cc2c1=O [EXAMP. 17, 7-(4-{4-[5-(S)-(acetylamino-methyl)-2-oxo-oxazolidin-3-yl]-2-fluoro-phenyl}-piperazin-1-yl)-6,8-difluoro-1-(2-fluoro-ethyl)-4-oxo-1,4-dihydro-quinoline-3-carboxylic Acid Ethyl Ester] | 0.5 (≈ 0.789 µM) | 2 (≈ 3.16 µM) | 1 (≈ 1.58 µM) | 64 (≈ 101 µM) | 1 (≈ 1.58 µM) | > 64 | 4 (≈ 6.31 µM) | 2 (≈ 3.16 µM) | 0.5 (≈ 0.789 µM) | 4 (≈ 6.31 µM)
C#CC(O)[C@H]1CN(c2ccc(N3CCN(c4nc5c(cc4F)c(=O)c(C(=O)O)cn5-c4ccc(F)cc4F)CC3)c(F)c2)C(=O)O1 (stereo partly drawn) [EXAMP. 19, 1-(2,4-difluoro-phenyl)-6-fluoro-7-(4-{2-fluoro-4-[5-(R)-(1-hydroxy-prop-2-inyl)-2-oxo-oxazolidin-3-yl]-phenyl}-piperazin-1-yl)-4-oxo-1,4-dihydro-[1,8]Naphthyridine-3-carboxylic Acid] | 4 (≈ 6.27 µM) | 4 (≈ 6.27 µM) | 8 (≈ 12.5 µM) | 1 (≈ 1.57 µM) | 4 (≈ 6.27 µM) | 32 (≈ 50.2 µM) | 2 (≈ 3.14 µM) | 8 (≈ 12.5 µM) | 8 (≈ 12.5 µM) | > 64
CC(=O)NC[C@H]1CN(c2ccc(N3CCOCC3)c(F)c2)C(=O)O1 [Linezolid, reference compound] | 1 (≈ 2.96 µM) | 2 (≈ 5.93 µM) | – | 16 (≈ 47.4 µM) | 1 (≈ 2.96 µM) | > 64 | 16 (≈ 47.4 µM) | 2 (≈ 5.93 µM) | 2 (≈ 5.93 µM) | 2 (≈ 5.93 µM)
